“And” between values parts separate entries of the source, which are not always exact repeats. Identical values can stand only once. Like-named read-outs stand apart in the source and are kept apart here.
Key:
NF-kβ = assay type: cell-based, rat
Method: Preparation of Nuclear Extracts and Electrophoretic Mobility shift assay Nuclear extracts from stimulated or unstimulated astrocytes (1×10^7 cells) were prepared using the method of Dignam et al. (1983) with slight modification. Cells were harvested, washed twice with ice-cold phosphate-buffered saline and lysed in 400 μl of buffer A (10 mM HEPES, pH 7.9, 10 mM KCl, 2 mM MgCl2, 0.5 mM DTT, 1 mM PMSF, 5 μg/ml aprotinin, 5 μg/ml pepstatin A, and 5 μg/ml leupeptin (Sigma, St. Louis, Mo.) containing 0.1% Nondet P-40 for 15 min on ice, vortexed vigorously for 15 s, and centrifuged at 14,000 rpm for 30 s. The pelleted nuclei were resuspended in 40 μl of buffer B (20 mM HEPES, pH 7.9, 25% (v/v) glycerol, 0.42 M NaCl, 1.5 mM MgCl2, 0.2 mM EDTA, 0.5 mM DTT, 1 mM PMSF, 5 μg/ml aprotinin, 5 μg/ml pepstatin A, and 5 μg/ml leupeptin). After 30 min on ice, lysates were centrifuged at 14,000 rpm for 10 min. Supernatants containing the nuclear proteins were diluted with 20 μl of modified buffer C (20 mM HEPES, pH 7.9, 20% (v/v) glycerol, 0.05 M KCl, 0.2 mM EDTA, 0.5 mM DTT, and 0.5 mM PMSF) and stored at −70° C. until use. Nuclear extracts were used for the electrophoretic mobility shift assay using the NF-kβ DNA binding protein detection system kit (GIBCO/BRL), according to the manufacturer's protocol.
Preparation of nuclear extracts and electrophoretic mobility shift assay Nuclear extracts from stimulated or unstimulated astrocytes (1×10^7 cells) were prepared as described (Dignam et al., 1983) with slight modification. Cells were harvested, washed twice with ice-cold phosphate-buffered saline and lysed in 400 μl of buffer A (10 mM HEPES, pH 7.9, 10 mM KCl, 2 mM MgCl2, 0.5 mM DTT, 1 mM PMSF, 5 μg/ml aprotinin, 5 μg/ml pepstatin A, and 5 μg/ml leupeptin) containing 0.1% Nonidet P40 for 15 min on ice, vortexed vigorously for 15 s, and centrifuged at 14,000 rpm for 30 s. […]

[1] = tested on: cultured skin fibroblasts of X-ALD; test: β-oxidation of lignoceric acid in cultured skin fibroblasts of X-ALD; assay type: cell-based, human
[2] = tested on: IL-6 production in rat macrophages; test: LPS-induced IL-6 production (ELISA) in rat macrophages; assay type: cell-based
[3] = tested on: control human skin fibroblasts; test: β-oxidation of lignoceric acid in control human skin fibroblasts; assay type: cell-based
[4] = tested on: TNF-α production in rat resident macrophages; test: LPS-/IFN-γ-induced TNF-α production (ELISA) in rat macrophages; assay type: cell-based
iNOS = test: Immunofluorescence of iNOS in brain sections of EAE rats; assay type: in vivo, Lewis rats
Method: (§1) One group of animals induced for EAE was left untreated while another group of animals was not induced for EAE and used as the control group.
(§2) Immunohistochemistry Brains were fixed in 10% buffered formalin (Stephens Scientific, Riverdale, N.J.). The tissues were embedded in paraffin and sectioned at 4 μm. Sections were then stained for various cytokines and cell markers as described below. For single-label immunohistochemistry, sections were incubated with either anti-iNOS antibody (1:100, rabbit polyclonal, Calbiochem, LaJolla, Calif.) or anti-TNF-α antibody (1:100, rabbit polyclonal, Genzyme, Cambridge, Mass.) or anti-IFN-γ antibody (1:200, rabbit polyclonal, Biosource International, Camarillo, Calif.) essentially as described for other antibodies (Hooper et al., 1997). The tissue sections were further incubated with FITC conjugated anti-rabbit IgG (1:100, Sigma, St. Louis, Mo.), mounted with mounting media (EMS) and analyzed by immunofluorescence microscopy (Olympus) using Adobe photoshop software. For immunofluorescent double-labeling, sections were incubated first with anti-iNOS (1:100) followed by macrophage marker ED1 (1:100, mouse monoclonal, Biosource International, Camarillo, Calif.). Anti-iNOS was visualized using TRITC conjugated anti-rabbit IgG—(1:100, Sigma, St. Louis, Mo.) and ED1 using FITC conjugated anti-mouse IgG (1:100, Sigma, St. Louis, Mo.). […]

IFN-γ = test: Immunohistochemistry of IFN-γ in brain sections of EAE rats; assay type: in vivo, Lewis rats
Method: as §1, §2

[5] = Macrophages, 10 μM lovastatin or 5 mM NaPA 8 h, then LPS 1.0 μg/ml, 24 h
[6] = daily i.p. treatment from day 1

## CC[C@H](C)C(=O)O[C@H]1C[C@@H](C)C=C2C=C[C@H](C)[C@H](CC[C@@H]3C[C@@H](O)CC(=O)O3)[C@H]21 [Lovastatin]
NF-kβ; LPS 1.0 μg/ml, 1 h
  LPS-induced activation of NF-kβ: markedly inhibited for the LPS-induced activation of NF-kβ
[1]; 72 h, lovastatin 5 μM, NaPA 5 mM (highest doses found to stimulate)
  stimulation of lignoceric acid β-oxidation: 70%
[1]; ALDS2, 15 days, 5 μM lovastatin, 5 mM NaPA or the combination of 2 μM lovastatin and 2 mM NaPA, Control 142.7 ± 15.7
  Lignoceric acid β-oxidation: 223.5 ± 24.1 pmol/h/mg protein
[1]; ALDS2, 15 days, 5 μM lovastatin, 5 mM NaPA or the combination of 4 μM forskolin and 2 mM NaPA, Control 142.7 ± 15.7
  Lignoceric acid β-oxidation: 223.5 ± 24.1 pmol/h/mg protein
[1]; ALDS3, 15 days, 5 μM lovastatin, 5 mM NaPA or the combination of 2 μM lovastatin and 2 mM NaPA, Control 122.3 ± 11.7
  Lignoceric acid β-oxidation: 201.3 ± 22.3 pmol/h/mg protein
[1]; ALDS3, 15 days, 5 μM lovastatin, 5 mM NaPA or the combination of 4 μM forskolin and 2 mM NaPA, Control 122.3 ± 11.7
  Lignoceric acid β-oxidation: 201.3 ± 22.3 pmol/h/mg protein
[1]; ALDS4, 15 days, 5 μM lovastatin, 5 mM NaPA or the combination of 2 μM lovastatin and 2 mM NaPA, Control 118.5 ± 12.6
  Lignoceric acid β-oxidation: 192.8 ± 20.5 pmol/h/mg protein
[1]; ALDS4, 15 days, 5 μM lovastatin, 5 mM NaPA or the combination of 4 μM forskolin and 2 mM NaPA, Control 118.5 ± 12.6
  Lignoceric acid β-oxidation: 192.8 ± 20.5 pmol/h/mg protein
[1]; ALDS5, 15 days, 5 μM lovastatin, 5 mM NaPA or the combination of 2 μM lovastatin and 2 mM NaPA, Control 154.2 ± 14.2
  Lignoceric acid β-oxidation: 248.2 ± 26.2 pmol/h/mg protein
[1]; ALDS5, 15 days, 5 μM lovastatin, 5 mM NaPA or the combination of 4 μM forskolin and 2 mM NaPA, Control 154.2 ± 14.2
  Lignoceric acid β-oxidation: 248.2 ± 26.2 pmol/h/mg protein
[1]; ALDS6, 15 days, 5 μM lovastatin, 5 mM NaPA or the combination of 2 μM lovastatin and 2 mM NaPA, Control 132.4 ± 15.9
  Lignoceric acid β-oxidation: 218.3 ± 19.8 pmol/h/mg protein
[1]; ALDS6, 15 days, 5 μM lovastatin, 5 mM NaPA or the combination of 4 μM forskolin and 2 mM NaPA, Control 132.4 ± 15.9
  Lignoceric acid β-oxidation: 218.3 ± 19.8 pmol/h/mg protein
[2]; [5]
  Production of IL-6: 8.3 ± 0.6 ng/24 h/mg protein
[3]; 72 h, Lovastatin 5 μM, Mevastatin 5 μM, NaPA 5 mM, Control 570.2 ± 52.3
  Lignoceric acid β-oxidation: 945.7 ± 105.6 pmol/h/mg protein
[4]; [5]
  Production of TNF-α: 1.2 ± 0.1 ng/24 h/mg protein

## CC(=O)N[C@@H](CS)C(=O)O [NAC, N-acetyl cysteine]
iNOS; [6]
  expression of iNOS in EAE brain: blocked the ability of MBP to induce the expression of iNOS
IFN-γ; [6]
  expression of IFN-γ in EAE brain: blocked the induction of IFN-γ

## O=C([O-])Cc1ccccc1.[Na+] [NaPA, sodium salt of phenylacetic acid]
NF-kβ
  LPS-induced activation of NF-kβ: markedly inhibited for the LPS-induced activation of NF-kβ
[1]
  Lignoceric acid β-oxidation: 211.5 ± 22.6 pmol/h/mg protein and 189.7 ± 21.2 pmol/h/mg protein and 183.2 ± 17.3 pmol/h/mg protein and 178.9 ± 18.3 pmol/h/mg protein and 202.5 ± 17.4 pmol/h/mg protein
  stimulation of lignoceric acid β-oxidation: 40%
iNOS; rat, in vivo, ip
  expression of iNOS in EAE brain: blocked the ability of MBP to induce the expression of iNOS
IFN-γ; rat, in vivo, ip
  expression of IFN-γ in EAE brain: blocked the induction of IFN-γ
[2]
  Production of IL-6: 10.2 ± 1.4 ng/24 h/mg protein
[3]
  Lignoceric acid β-oxidation: 826.2 ± 87.2 pmol/h/mg protein
[4]
  Production of TNF-α: 1.7 ± 0.2 ng/24 h/mg protein

Reference: US8507219B2, “Method of treating inflammation with statins” (MUSC Foundation for Research Development, priority 1997, dated 2013)
